Measured values: publication PMC10121968, “Fosgonimeton, a Novel Positive Modulator of the HGF/MET System, Promotes Neurotrophic and Procognitive Effects in Models of Dementia” (Neurotherapeutics, 2022)
Non-standard residues stand in square brackets, D forms with d. Residues, ends and D or L forms follow the SMILES beside them. *: point of attachment. Hexanoyl = CCCCCC(=O)*; Ahx = NCCCCCC(=O)O

What was measured:
[1] = target: T1, MET receptor (Homo sapiens, UniProt P08581); assay: Phosphorylated MET receptor (pMET) ELISA in HEK293 cell lysates; assay type: cell-based; conditions: HEK293 cells, 1 ng/mL HGF, 0.001–100 nM, 15 min
T1 construct: pMET enzyme-linked immunosorbent assay (ELISA) of human embryonic kidney (HEK293) cell lysates; endogenous in cells; host or cells: HEK293 (ATCC CRL-1573)
T1 sequence (P08581 308-1390 limits assumed): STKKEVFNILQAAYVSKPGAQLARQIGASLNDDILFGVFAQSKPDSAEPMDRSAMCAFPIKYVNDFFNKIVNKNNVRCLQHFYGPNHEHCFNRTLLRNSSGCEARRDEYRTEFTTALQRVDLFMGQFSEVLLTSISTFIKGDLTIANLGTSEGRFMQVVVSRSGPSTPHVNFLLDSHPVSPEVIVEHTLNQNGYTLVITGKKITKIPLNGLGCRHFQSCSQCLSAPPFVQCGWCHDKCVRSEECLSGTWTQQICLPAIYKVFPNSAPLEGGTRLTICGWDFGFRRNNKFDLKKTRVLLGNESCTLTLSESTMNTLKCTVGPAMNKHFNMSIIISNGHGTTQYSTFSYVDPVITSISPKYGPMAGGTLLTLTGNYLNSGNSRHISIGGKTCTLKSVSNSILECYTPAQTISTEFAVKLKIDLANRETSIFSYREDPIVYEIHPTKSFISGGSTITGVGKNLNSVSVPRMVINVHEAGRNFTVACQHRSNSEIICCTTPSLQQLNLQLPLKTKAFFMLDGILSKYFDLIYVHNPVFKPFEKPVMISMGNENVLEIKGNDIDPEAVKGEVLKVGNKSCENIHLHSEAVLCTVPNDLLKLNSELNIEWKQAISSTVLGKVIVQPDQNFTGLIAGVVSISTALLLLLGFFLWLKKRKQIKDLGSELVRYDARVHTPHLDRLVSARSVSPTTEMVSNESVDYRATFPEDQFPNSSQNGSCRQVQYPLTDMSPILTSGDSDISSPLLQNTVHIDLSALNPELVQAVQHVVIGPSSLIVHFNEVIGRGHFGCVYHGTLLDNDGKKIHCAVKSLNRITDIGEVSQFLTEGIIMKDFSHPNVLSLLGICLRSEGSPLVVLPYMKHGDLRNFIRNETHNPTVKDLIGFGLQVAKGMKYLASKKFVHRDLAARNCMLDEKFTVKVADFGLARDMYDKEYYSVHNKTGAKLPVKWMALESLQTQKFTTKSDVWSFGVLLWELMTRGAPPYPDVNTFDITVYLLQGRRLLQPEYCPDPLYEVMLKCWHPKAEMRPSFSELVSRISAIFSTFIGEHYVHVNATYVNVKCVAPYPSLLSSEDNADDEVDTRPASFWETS
T1 sequence (P08581 25-307 limits assumed): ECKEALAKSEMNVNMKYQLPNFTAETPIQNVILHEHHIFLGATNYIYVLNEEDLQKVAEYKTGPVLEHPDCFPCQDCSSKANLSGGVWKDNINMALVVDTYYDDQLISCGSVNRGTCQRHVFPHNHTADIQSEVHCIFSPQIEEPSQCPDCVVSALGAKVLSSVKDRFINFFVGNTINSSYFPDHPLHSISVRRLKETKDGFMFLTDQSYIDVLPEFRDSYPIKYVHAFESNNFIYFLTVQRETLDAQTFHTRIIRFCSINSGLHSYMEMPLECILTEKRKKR
Procedure: Human embryonic kidney (HEK293, ATCC CRL-1573) cells were grown at 37 °C, 5% CO2 in Dulbecco's Modified Eagle Medium (DMEM) + 10% fetal bovine serum (FBS) in T-75 flasks until approximately 90% confluent and then seeded in polystyrene-treated 6-well plates for at least 8 h in serum-free growth media. Recombinant HGF protein (R&D Systems, Minneapolis, Minnesota) with or without experimental small-molecule treatment cocktails (Jubilant Biosys, Uttar Pradesh, India) were prepared in DMEM + 0.1% FBS and added to wells in triplicate for 15 min. Cells were lysed with 180 μL ice-cold RIPA buffer including a phosphatase inhibitor (PhosphataseArrest, G-Biosciences, St. Louis, Missouri) on ice for 15 min and then cleared by centrifugation at 16,000 g. Bicinchoninic acid (BCA) assays of lysates were used to normalize protein concentration across samples. Phosphorylated MET receptor (pMET) enzyme-linked immunosorbent assay (ELISA) kit processing was carried out according to the manufacturer’s instructions (Phospho-MET [Tyr1234/1235] Sandwich ELISA Kit, CST #7227C, Cell Signaling Technology, Danvers, Massachusetts). Raw absorbance signals were scaled between subthreshold (1 ng/mL HGF) and saturating (10 ng/mL HGF) controls such that HGF 1 ng/mL = 1 and HGF 10 ng/mL = 10. The statistical difference from subthreshold control was determined by Student’s t-test. […]

[2] = test system: MDCK cells; assay: MDCK cell scatter behavior assay; assay type: cell-based, canine; conditions: HGF 10 ng/mL + fosgo-AM 10 pM, 100 pM and 1 nM, 24 h, vs HGF alone
Procedure: Madin-Darby canine kidney (MDCK, ATCC CCL-34) cells were grown at 37 °C, 5% CO2 in Eagle’s Minimum Essential Medium (EMEM) + 10% FBS in T-75 flasks until 80% confluent. Cells were then plated at 1400 cells/well in black-walled, clear-bottom 96-well plates and grown at 37 °C under 5% CO2 for 24 h. Growth media were replaced by serum-free media for 2 h before treatment. Treatments containing HGF and fosgo-AM were made in serum-free media and applied in quintuplicates for 24 h at 37 °C under 5% CO2. Cells were then fixed in chilled 100% EtOH at 4 °C for 20 min and then stained with wheat germ agglutinin conjugated to CF488 (WGA488, Biotium, 29,022–1, Fremont, California) at […] in phosphate-buffered saline (PBS) for 30 min at RT to visualize whole-cell surfaces. Cultures were then imaged with an iCys instrument (iCyte, Thor Labs, Newton, New Jersey) and analyzed with the ImageJ (National Institutes of Health) particle count feature. Scattering behavior was quantified by normalizing particle counts against total stained area. […] Data were assessed for normality (Shapiro–Wilk) and homoscedasticity (Brown-Forsythe). The statistical difference from HGF alone was determined by one-way ANOVA with Dunnett’s multiple comparison post-test with an alpha value of 0.05 (Prism, GraphPad).

[3] = test system: AKT (Ser473); assay: Phospho-AKT HTRF assay in HEK293 cells; assay type: cell-based, human; conditions: HEK293, subthreshold HGF 10 ng/mL + fosgo-AM 0.1 µM, vs HGF alone
Excerpt: (§1) To determine phosphoactivation status of the intracellular signaling molecules ERK (Thr202/Tyr204) or AKT (Ser473), we used homogenous time-resolved fluorescence (HTRF) kits to assess phosphorylation status based on the energy transfer between donor and acceptor phospho-ERK (pERK) or phospho-AKT (pAKT) antibodies. HTRF kit processing for pERK (Phospho-ERK [Thr202/Tyr204] cellular Advanced kit, #64AERPEG, Cisbio, Codolet, France) and pAKT (Phospho-AKT [Ser473] cellular kit, #64AKSPEG, Cisbio, Codolet, France) were carried out per manufacturer instructions. In brief, HEK293 cells were grown at 37 °C, 5% CO2 in DMEM + 10% FBS until approximately 80% confluent. Cells were seeded in polystyrene-treated 96-well cell culture plates at approximately 50,000 cells/well and cultured overnight in 50 µL serum-free growth media. […] Fluorescence emission at 2 different wavelengths (665 nm and 620 nm) were measured on an Envision plate reader (PerkinElmer, Waltham, Massachusetts), and the HTRF ratio of the acceptor and donor emission signals for each well was calculated as follows: HTRF ratio = (665 nm/620 nm) × 10,000. […] Data were assessed for normality (Shapiro–Wilk) and homoscedasticity (Brown-Forsythe). Statistical significance was determined by one-way analysis of variance (ANOVA) with Tukey’s multiple comparison post-test. […]

[4] = test system: ERK (Thr202/Tyr204); assay: Phospho-ERK HTRF assay in HEK293 cells; assay type: cell-based, human; conditions: HEK293, subthreshold HGF 0.1 ng/mL + fosgo-AM 1 µM, vs HGF alone
Excerpt: as §1

With `CCCCCC(=O)N[C@@H](Cc1ccc(O)cc1)C(=O)N[C@H](C(=O)NCCCCCC(N)=O)[C@@H](C)CC` [fosgo-AM] (Hexanoyl-Tyr-Ile-[Ahx]-NH2) the “enhancement of pMET levels in the presence of low HGF” value [1] was “most potent positive modulator of HGF/MET”, the cell scattering behavior [2] was “significant cell scattering” and the pAKT levels [3] was “significant increase”. The pERK levels [4] was “significant increase”.
